Reference: patent publication US8901118B2, “Compounds and methods for kinase modulation, and indications therefor” (Plexxikon Inc., priority 2010, dated 2014)

Legend:
Fms kinase = Fms kinase (Homo sapiens, UniProt P07333); experiment: Fms kinase biochemical activity assay (AlphaScreen, biotin-(E4Y)10 phosphorylation); conditions: 100 μM ATP; read-out: Biochemical Inhibition IC50 Fms
Summary of the method: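 Fms kinase (1 ng/well) phosphorylating 30 nM biotin-(E4Y)10 with 100 μM ATP in 25 mM Hepes pH 7.5, MgCl2/MnCl2, 5% DMSO, 20 min at 30 °C. Phosphotyrosine detected by AlphaScreen streptavidin donor and PY20 acceptor beads; IC50 from signal versus compound concentration.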

BCR-FMS BaF3 cells = biological target: T1, BCR-FMS BaF3 cells (Homo sapiens, UniProt P07333); experiment: BaF3 BCR-FMS cell proliferation assay (ATPlite); assay type: cell-based; conditions: read-out: Inhibition of Cell Proliferation IC50, BCR/BaF3 Fms
T1 construct: fused on or other part: P11274 (Breakpoint cluster region protein)
T1 sequence (P07333 582-910): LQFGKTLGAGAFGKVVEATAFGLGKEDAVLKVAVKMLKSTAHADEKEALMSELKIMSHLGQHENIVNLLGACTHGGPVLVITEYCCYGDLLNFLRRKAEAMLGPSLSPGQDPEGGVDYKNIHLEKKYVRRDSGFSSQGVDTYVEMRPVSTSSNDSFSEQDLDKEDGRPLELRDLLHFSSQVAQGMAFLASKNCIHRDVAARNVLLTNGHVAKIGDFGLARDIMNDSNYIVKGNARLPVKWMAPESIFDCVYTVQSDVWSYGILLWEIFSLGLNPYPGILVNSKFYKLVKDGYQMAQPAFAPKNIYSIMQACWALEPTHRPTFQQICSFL
Summary of the method: (§1)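 Growth inhibition over 3 days at 37 °C; IC50 from ATPlite luminescence, 8 concentrations (1:3 steps, max 10 μM). BaF3 fusion lines were tested without IL-3.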

BCR-KIT BaF3 cells = biological target: T2, BCR-KIT BaF3 cells (Homo sapiens, UniProt P10721); experiment: BaF3 BCR-KIT cell proliferation assay (ATPlite); assay type: cell-based; conditions: read-out: Inhibition of Cell Proliferation IC50, BCR/BaF3 Kit
T2 construct: fused on or other part: P11274 (Breakpoint cluster region protein)
Summary of the method: as §1

T2 sequence (P10721 589-937): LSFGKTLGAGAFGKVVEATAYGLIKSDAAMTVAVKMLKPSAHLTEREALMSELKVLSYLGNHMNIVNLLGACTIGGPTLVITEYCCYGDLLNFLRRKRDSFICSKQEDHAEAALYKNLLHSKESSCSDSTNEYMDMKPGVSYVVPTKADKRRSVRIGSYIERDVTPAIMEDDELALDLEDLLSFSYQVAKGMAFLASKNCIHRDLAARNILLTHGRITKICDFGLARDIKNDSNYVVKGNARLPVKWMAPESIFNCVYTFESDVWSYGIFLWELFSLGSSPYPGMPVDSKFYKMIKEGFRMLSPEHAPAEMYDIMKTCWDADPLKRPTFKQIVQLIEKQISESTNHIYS
Fms kinase, sequence (P07333 20-972): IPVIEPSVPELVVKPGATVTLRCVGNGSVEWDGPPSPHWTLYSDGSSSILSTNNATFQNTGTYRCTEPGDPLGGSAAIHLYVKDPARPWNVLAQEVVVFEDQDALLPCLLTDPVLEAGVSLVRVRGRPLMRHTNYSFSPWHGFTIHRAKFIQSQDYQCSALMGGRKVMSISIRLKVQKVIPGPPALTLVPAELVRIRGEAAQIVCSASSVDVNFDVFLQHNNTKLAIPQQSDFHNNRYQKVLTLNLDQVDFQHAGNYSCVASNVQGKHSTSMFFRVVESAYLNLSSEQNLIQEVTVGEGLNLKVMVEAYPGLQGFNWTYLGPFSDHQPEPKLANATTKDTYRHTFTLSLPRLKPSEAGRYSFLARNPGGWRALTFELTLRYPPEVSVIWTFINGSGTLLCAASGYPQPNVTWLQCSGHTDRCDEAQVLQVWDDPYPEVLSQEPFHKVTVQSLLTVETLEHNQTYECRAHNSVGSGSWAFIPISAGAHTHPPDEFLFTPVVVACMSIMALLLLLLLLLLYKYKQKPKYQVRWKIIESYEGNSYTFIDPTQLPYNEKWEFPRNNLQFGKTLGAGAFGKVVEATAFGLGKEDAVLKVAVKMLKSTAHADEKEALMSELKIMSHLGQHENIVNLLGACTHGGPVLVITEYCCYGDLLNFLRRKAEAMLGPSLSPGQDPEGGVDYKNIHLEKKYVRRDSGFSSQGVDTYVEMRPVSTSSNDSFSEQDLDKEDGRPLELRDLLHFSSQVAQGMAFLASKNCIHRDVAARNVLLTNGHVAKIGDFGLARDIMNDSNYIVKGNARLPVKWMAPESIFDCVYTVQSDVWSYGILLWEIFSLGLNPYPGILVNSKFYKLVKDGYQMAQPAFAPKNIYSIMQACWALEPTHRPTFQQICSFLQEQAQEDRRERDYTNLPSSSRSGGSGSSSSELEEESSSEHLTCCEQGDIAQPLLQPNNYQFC

Structure (SMILES)	IC50 (Fms kinase)	IC50 (BCR-FMS BaF3 cells)	IC50 (BCR-KIT BaF3 cells)
Cc1cnc2[nH]cc(Cc3cnc(Nc4cc(OC(C)C)n[nH]4)nc3)c2c1 [Compound P-3038, (5-Isopropoxy-2H-pyrazol-3-yl)-[5-(5-methyl-1H-pyrrolo[2,3-b]pyridin-3-ylmethyl)-pyrimidin-2-yl]-amine]	< 1000 nM	< 1000 nM	< 1000 nM
CCOc1ccc(Nc2ccc(Cc3c[nH]c4ncc(C)cc34)c(F)n2)cn1 [Compound P-3039, (6-ethoxy-pyridin-3-yl)-[6-fluoro-5-(5-methyl-1H-pyrrolo[2,3-b]pyridin-3-ylmethyl)-pyridin-2-yl]-amine]	< 10 nM	< 10 nM	< 1000 nM
COc1ccc(Nc2ccc(C(=O)c3c[nH]c4ncc(C)cc34)c(F)n2)cn1 [Compound P-3040, [2-Fluoro-6-(6-methoxy-pyridin-3-ylamino)-pyridin-3-yl]-(5-methyl-1H-pyrrolo[2,3-b]pyridin-3-yl)-methanone]	< 100 nM	< 100 nM	> 1000 nM
Cc1cnc2[nH]cc(Cc3ccc(Nc4ccc(C)nc4)nc3F)c2c1 [Compound P-3041, [6-Fluoro-5-(5-methyl-1H-pyrrolo[2,3-b]pyridin-3-ylmethyl)-pyridin-2-yl]-(6-methyl-pyridin-3-yl)-amine]	< 10 nM	< 10 nM	< 1000 nM
Cc1ccc(Nc2ccc(Cc3c[nH]c4ncc(Cl)cc34)c(F)n2)cn1 [Compound P-3042, [5-(5-Chloro-1H-pyrrolo[2,3-b]pyridin-3-ylmethyl)-6-fluoro-pyridin-2-yl]-(6-methyl-pyridin-3-yl)-amine]	< 10 nM	< 100 nM	< 1000 nM
Cc1cnc2[nH]cc(C(=O)c3ccc(Nc4ccc(C)nc4)nc3F)c2c1 [Compound P-3043, [2-Fluoro-6-(6-methyl-pyridin-3-ylamino)-pyridin-3-yl]-(5-methyl-1H-pyrrolo[2,3-b]pyridin-3-yl)-methanone]	< 10 nM	< 100 nM	< 1000 nM
Cc1ccc(Nc2ccc(C(=O)c3c[nH]c4ncc(Cl)cc34)c(F)n2)cn1 [Compound P-3044, (5-Chloro-1H-pyrrolo[2,3-b]pyridin-3-yl)-[2-fluoro-6-(6-methyl-pyridin-3-ylamino)-pyridin-3-yl]-methanone]	< 10 nM	< 100 nM	< 1000 nM
CCOc1ccc(Nc2ccc(C(=O)c3c[nH]c4ncc(C)cc34)c(F)n2)cn1 [Compound P-3045, [6-(6-ethoxy-pyridin-3-ylamino)-2-fluoro-pyridin-3-yl]-(5-methyl-1H-pyrrolo[2,3-b]pyridin-3-yl)-methanone]	< 10 nM	< 100 nM	< 1000 nM
CCc1ccc(Nc2ccc(Cc3c[nH]c4ncc(C)cc34)c(F)n2)cn1 [Compound P-3048, (6-Ethyl-pyridin-3-yl)-[6-fluoro-5-(5-methyl-1H-pyrrolo[2,3-b]pyridin-3-ylmethyl)-pyridin-2-yl]-amine]	< 10 nM	< 10 nM	< 100 nM
CCc1ccc(Nc2ccc(C(=O)c3c[nH]c4ncc(C)cc34)c(F)n2)cn1 [Compound P-3049, [6-(6-Ethyl-pyridin-3-ylamino)-2-fluoro-pyridin-3-yl]-(5-methyl-1H-pyrrolo[2,3-b]pyridin-3-yl)-methanone]	< 10 nM	< 10 nM	< 100 nM
Cc1cnc2[nH]cc(Cc3ccc(Nc4ccc(C5CC5)nc4)nc3F)c2c1 [Compound P-3050, (6-Cyclopropyl-pyridin-3-yl)-[6-fluoro-5-(5-methyl-1H-pyrrolo[2,3-b]pyridin-3-ylmethyl)-pyridin-2-yl]-amine]	< 100 nM	< 100 nM	< 1000 nM
Cc1cnc2[nH]cc(C(=O)c3ccc(Nc4ccc(C5CC5)nc4)nc3F)c2c1 [Compound P-3051, [6-(6-Cyclopropyl-pyridin-3-ylamino)-2-fluoro-pyridin-3-yl]-(5-methyl-1H-pyrrolo[2,3-b]pyridin-3-yl)-methanone]	< 10 nM	< 100 nM	< 1000 nM
COc1ccc(Nc2ccc(Cc3c[nH]c4ncnc(OC)c34)c(F)n2)cn1 [Compound P-4001, [6-Fluoro-5-(4-methoxy-7H-pyrrolo[2,3-d]pyrimidin-5-ylmethyl)-pyridin-2-yl]-(6-methoxy-pyridin-3-yl)-amine]	< 10 nM	< 10 nM	< 1000 nM
COc1ccc(Nc2ccc(Cc3c[nH]c4ncnc(C)c34)c(F)n2)cn1 [Compound P-4002, [6-Fluoro-5-(4-methyl-7H-pyrrolo[2,3-d]pyrimidin-5-ylmethyl)-pyridin-2-yl]-(6-methoxy-pyridin-3-yl)-amine]	< 100 nM	< 100 nM	< 1000 nM

More lines, now with the values ahead:

IC50 (Fms kinase)	IC50 (BCR-FMS BaF3 cells)	IC50 (BCR-KIT BaF3 cells)	Structure (SMILES)
< 100 nM	< 100 nM	> 1000 nM	COc1ncnc2[nH]cc(Cc3ccc(Nc4ccc(Cl)nc4)nc3F)c12 [Compound P-4003, (6-Chloro-pyridin-3-yl)-[6-fluoro-5-(4-methoxy-7H-pyrrolo[2,3-d]pyrimidin-5-ylmethyl)-pyridin-2-yl]-amine]
< 100 nM	< 10 nM	< 100 nM	COc1ncnc2[nH]cc(Cc3ccc(Nc4ccc(C5CC5)nc4)nc3F)c12 [Compound P-4004, (6-Cyclopropyl-pyridin-3-yl)-[6-fluoro-5-(4-methoxy-7H-pyrrolo[2,3-d]pyrimidin-5-ylmethyl)-pyridin-2-yl]-amine]
< 10 nM	< 10 nM	< 100 nM	CCOc1ccc(Nc2ccc(Cc3c[nH]c4ncnc(OC)c34)c(F)n2)cn1 [Compound P-4005, (6-Ethoxy-pyridin-3-yl)-[6-fluoro-5-(4-methoxy-7H-pyrrolo[2,3-d]pyrimidin-5-ylmethyl)-pyridin-2-yl]-amine]
< 10 nM	< 10 nM	< 100 nM	CCOc1ccc(Nc2ccc(Cc3c[nH]c4ncnc(C)c34)c(F)n2)cn1 [Compound P-4006, (6-Ethoxy-pyridin-3-yl)-[6-fluoro-5-(4-methyl-7H-pyrrolo[2,3-d]pyrimidin-5-ylmethyl)-pyridin-2-yl]-amine]
< 10 nM	< 10 nM	< 1000 nM	CCc1ccc(Nc2ccc(Cc3c[nH]c4ncnc(OC)c34)c(F)n2)cn1 [Compound P-4007, (6-Ethyl-pyridin-3-yl)-[6-fluoro-5-(4-methoxy-7H-pyrrolo[2,3-d]pyrimidin-5-ylmethyl)-pyridin-2-yl]-amine]
< 10 nM	< 10 nM	< 1000 nM	CCOc1ccc(Nc2ccc(Cc3c[nH]c4ncnc(OCCOC)c34)c(F)n2)cn1 [Compound P-4008, (6-Ethoxy-pyridin-3-yl)-{6-fluoro-5-[4-(2-methoxy-ethoxy)-7H-pyrrolo[2,3-d]pyrimidin-5-ylmethyl]-pyridin-2-yl}-amine]
< 10 nM	< 10 nM	< 1000 nM	CCc1ccc(Nc2ccc(Cc3c[nH]c4ncnc(C)c34)c(F)n2)cn1 [Compound P-4009, (6-Ethyl-pyridin-3-yl)-[6-fluoro-5-(4-methyl-7H-pyrrolo[2,3-d]pyrimidin-5-ylmethyl)-pyridin-2-yl]-amine]
< 10 nM	< 10 nM	< 1000 nM	COc1ncnc2[nH]cc(Cc3ccc(Nc4ccc(C)nc4)nc3F)c12 [Compound P-4010, [6-Fluoro-5-(4-methoxy-7H-pyrrolo[2,3-d]pyrimidin-5-ylmethyl)-pyridin-2-yl]-(6-methyl-pyridin-3-yl)-amine]
< 10 nM	< 10 nM	> 1000 nM	CCn1cc(Nc2ccc(Cc3c[nH]c4ncnc(OC)c34)c(F)n2)cn1 [Compound P-4011, (1-Ethyl-1H-pyrazol-4-yl)-[6-fluoro-5-(4-methoxy-7H-pyrrolo[2,3-d]pyrimidin-5-ylmethyl)-pyridin-2-yl]-amine]
< 10 nM	< 10 nM	< 1000 nM	CCOc1ncnc2[nH]cc(Cc3ccc(Nc4cnn(CC)c4)nc3F)c12 [Compound P-4012, [5-(4-Ethoxy-7H-pyrrolo[2,3-d]pyrimidin-5-ylmethyl)-6-fluoro-pyridin-2-yl]-(1-ethyl-1H-pyrazol-4-yl)-amine]
< 10 nM	< 10 nM	< 1000 nM	CCn1cc(Nc2ccc(Cc3c[nH]c4ncnc(C)c34)c(F)n2)cn1 [Compound P-4013, (1-Ethyl-1H-pyrazol-4-yl)-[6-fluoro-5-(4-methyl-7H-pyrrolo[2,3-d]pyrimidin-5-ylmethyl)-pyridin-2-yl]-amine]
< 10 nM	< 100 nM	> 1000 nM	CCn1cc(Nc2ccc(Cc3c[nH]c4ncnc(OCCOC)c34)c(F)n2)cn1 [Compound P-4014, (1-Ethyl-1H-pyrazol-4-yl)-{6-fluoro-5-[4-(2-methoxy-ethoxy)-7H-pyrrolo[2,3-d]pyrimidin-5-ylmethyl]-pyridin-2-yl}-amine]
